Molecules are shown by their SMILES. Numbered stars: 1 amine (or outer) side, 2 acyl side, 3 side chain; on linkers, the order of the positions; unused ones are H or OH. Bridge positions count the residues as written; N and C are the ends. Square brackets hold non-standard residues; d marks the D form. Peptide text beside a SMILES is read from it. tBuAla = CC(C)(C)C[C@H](N)C(=O)O; X1 = O=C(CCC[*:2])[*:1]; Mpa = O=C(O)CCS Some results are limits rather than exact numbers.

Experimental findings from ChEMBL document CHEMBL4017483, “Potent and selective oxytocin receptor agonists without disulfide bridges” (Bioorg Med Chem Lett, 2017) are described below.

Assay [1] concerns the target T1, Oxytocin receptor (Homo sapiens, UniProt P30559).
T1 sequence (P30559 whole entry): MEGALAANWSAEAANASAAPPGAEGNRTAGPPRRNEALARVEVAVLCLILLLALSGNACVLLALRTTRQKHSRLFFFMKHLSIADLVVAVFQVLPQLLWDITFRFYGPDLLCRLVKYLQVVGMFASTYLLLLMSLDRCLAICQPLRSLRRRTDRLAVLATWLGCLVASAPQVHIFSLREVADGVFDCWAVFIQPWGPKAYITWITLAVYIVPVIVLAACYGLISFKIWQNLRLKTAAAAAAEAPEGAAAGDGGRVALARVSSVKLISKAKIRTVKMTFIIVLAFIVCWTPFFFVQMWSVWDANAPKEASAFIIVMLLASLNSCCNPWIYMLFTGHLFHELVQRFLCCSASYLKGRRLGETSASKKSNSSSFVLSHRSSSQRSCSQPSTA
The assay is described as follows: Agonist activity at human OTR expressed in CHO cells assessed as calcium mobilization measured after 30 mins by Fluo-4-AM dye based FLIPR assay. The format is functional, cell-based. In general terms: Calcium assays in cells follow changes in intracellular calcium, usually with a dye or a luminescent sensor.

Assay [2] deals with Vasopressin V1a receptor (Homo sapiens, UniProt P37288). The assay is described as follows: Agonist activity at human V1a receptor expressed in CHO cells assessed as calcium mobilization measured after 30 mins by Fluo-4-AM dye based FLIPR assay. The assay is classed as cell-based.
Assay [3] deals with T2, Vasopressin V1b receptor (Homo sapiens, UniProt P47901).
T2 sequence (P47901 whole entry): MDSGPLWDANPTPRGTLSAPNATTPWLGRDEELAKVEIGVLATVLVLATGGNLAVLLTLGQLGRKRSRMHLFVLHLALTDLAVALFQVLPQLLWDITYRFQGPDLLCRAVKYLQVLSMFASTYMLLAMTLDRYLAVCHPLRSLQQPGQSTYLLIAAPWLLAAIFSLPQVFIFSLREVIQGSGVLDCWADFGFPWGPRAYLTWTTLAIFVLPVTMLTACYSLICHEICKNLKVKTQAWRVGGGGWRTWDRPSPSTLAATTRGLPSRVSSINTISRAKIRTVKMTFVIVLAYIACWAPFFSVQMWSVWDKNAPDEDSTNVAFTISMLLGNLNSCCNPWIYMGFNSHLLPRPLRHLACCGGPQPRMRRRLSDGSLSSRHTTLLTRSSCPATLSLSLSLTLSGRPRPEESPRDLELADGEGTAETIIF
Put plainly: Agonist activity at human V1b receptor expressed in CHO cells assessed as calcium mobilization measured after 30 mins by Fluo-4-AM dye based FLIPR assay. The format is cell-based.

Assay [4] is filed under the species Homo sapiens. Put plainly: Selectivity ratio of EC50 for human V1a receptor to EC50 for human OTR.
The species named for assay [5] is Homo sapiens. Put plainly: Selectivity ratio of EC50 for human V1b receptor to EC50 for human OTR.

Chain of Vasopressin V1a receptor (P37288 whole entry): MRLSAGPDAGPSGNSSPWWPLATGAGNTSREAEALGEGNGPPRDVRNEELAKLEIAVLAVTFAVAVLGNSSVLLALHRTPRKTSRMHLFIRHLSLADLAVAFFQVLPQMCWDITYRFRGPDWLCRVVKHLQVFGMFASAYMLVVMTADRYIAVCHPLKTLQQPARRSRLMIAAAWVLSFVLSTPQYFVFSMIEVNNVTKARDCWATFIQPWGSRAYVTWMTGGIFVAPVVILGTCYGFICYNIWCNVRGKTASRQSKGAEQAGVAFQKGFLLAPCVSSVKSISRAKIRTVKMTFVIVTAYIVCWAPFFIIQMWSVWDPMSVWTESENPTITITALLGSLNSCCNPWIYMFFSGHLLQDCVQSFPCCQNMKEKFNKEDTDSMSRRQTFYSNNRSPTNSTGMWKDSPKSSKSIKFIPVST

On to `CC(C)C[C@@H]1NC(=O)[C@H](Cc2ccc(O)cc2)NC(=O)CCSSC[C@@H](C(=O)N2CCC[C@H]2C(=O)N[C@@H](CC(C)C)C(=O)NCC(N)=O)NC(=O)[C@H](CC(N)=O)NC(=O)[C@H](CCC(N)=O)NC1=O` ([Mpa]YLQNCPLG-NH2; disulfide 1-6), for which the half-maximal effective concentration (EC50) in assay [1] is 0.19 nM; in assay [2], more than 100 nM; in assay [3] it was 3.9 nM. The Ratio EC50 was more than 100 in assay [4] and 21 in assay [5].

In the case of `CC[C@H](C)[C@@H]1NC(=O)[C@H](Cc2ccc(O)cc2)NC(=O)CCSSC[C@@H](C(=O)N2CCC[C@H]2C(=O)N[C@@H](CC(C)C)C(=O)N[C@@H](CCC(=O)O)C(N)=O)NC(=O)[C@H](CC(N)=O)NC(=O)[C@H](CCC(N)=O)NC1=O` ([Mpa]YIQNCPLE-NH2; disulfide 1-6), the EC50 in assay [1] is 9.5 nM; in assay [2], more than 100 nM; in assay [3], more than 100 nM. Moreover, the Ratio EC50 in assay [4] and in assay [5] was more than 10 each time.

For `CC[C@H](C)[C@@H]1NC(=O)[C@H](Cc2ccc(O)cc2)NC(=O)CCSSC[C@@H](C(=O)N2CCC[C@H]2C(=O)N[C@@H](CC(C)C)C(=O)NCC(N)=O)NC(=O)[C@H](CC(C)C)NC(=O)[C@H](CCC(N)=O)NC1=O` ([Mpa]YIQLCPLG-NH2; disulfide 1-6), the half-maximal effective concentration (EC50) in assay [1], in assay [2] and in assay [3] was more than 100 nM each time.

With `CC[C@H](C)[C@@H]1NC(=O)[C@H](Cc2ccc(O)cc2)NC(=O)CCSSC[C@@H](C(=O)N[C@@H](CCC(=O)O)C(=O)N[C@@H](CC(C)C)C(=O)NCC(N)=O)NC(=O)[C@H](CC(N)=O)NC(=O)[C@H](CCC(N)=O)NC1=O` ([Mpa]YIQNCELG-NH2; disulfide 1-6), the EC50 in assay [1] was 0.35 nM; in assay [2], more than 100 nM; in assay [3], more than 100 nM. Besides, the Ratio EC50 in assay [4] and in assay [5] was more than 100 throughout.

As for `CC[C@H](C)[C@@H]1NC(=O)[C@H](Cc2ccc(O)cc2)NC(=O)CCSSC[C@@H](C(=O)N2CCC[C@H]2C(=O)N[C@@H](CC(C)C)C(=O)NCC(N)=O)NC(=O)[C@H](Cc2ccccc2)NC(=O)[C@H](CCC(N)=O)NC1=O` ([Mpa]YIQFCPLG-NH2; disulfide 1-6), the EC50 in assay [1], in assay [2] and in assay [3] was more than 100 nM in each case.

`CC[C@H](C)[C@@H]1NC(=O)[C@H](Cc2ccc(O)cc2)NC(=O)CCSSC[C@@H](C(=O)N2CCC[C@H]2C(=O)N[C@@H](CC(C)C)C(=O)NCC(N)=O)NC(=O)[C@H](C)NC(=O)[C@H](CCC(N)=O)NC1=O` ([Mpa]YIQACPLG-NH2; disulfide 1-6): the figures for the EC50 in assay [1], in assay [2] and in assay [3] were 17 nM, more than 100 nM and more than 100 nM, respectively. Also, the Ratio EC50 in assay [4] and in assay [5] was more than 5 each time.

As for `CC[C@H](C)[C@@H]1NC(=O)[C@H](Cc2ccccc2)NC(=O)CCSSC[C@@H](C(=O)N2CCC[C@H]2C(=O)N[C@@H](CC(C)C)C(=O)NCC(N)=O)NC(=O)[C@H](CC(N)=O)NC(=O)[C@H](CCC(N)=O)NC1=O` ([Mpa]FIQNCPLG-NH2; disulfide 1-6), the EC50 is 0.19 nM in assay [1], more than 100 nM in assay [2] and more than 100 nM in assay [3]. The Ratio EC50 in assay [4] and in assay [5] was more than 100 throughout.

Regarding `CC[C@H](C)[C@@H]1NC(=O)[C@H](Cc2ccc(O)cc2)NC(=O)CCCSC[C@@H](C(=O)N2CCC[C@H]2C(=O)N[C@@H](CC(C)(C)C)C(=O)NCC(N)=O)NC(=O)[C@H](CC(N)=O)NC(=O)[C@H](CCC(N)=O)NC1=O` (YIQNCP[tBuAla]G-NH2; linker N-5 via X1), the EC50 is 0.0065 nM in assay [1], more than 100 nM in assay [2] and more than 100 nM in assay [3]. Further, the Ratio EC50 in assay [4] and in assay [5] was more than 10000 throughout.

For `CC[C@H](C)[C@@H]1NC(=O)[C@H](Cc2ccc(O)cc2)NC(=O)CCSSC[C@@H](C(=O)N2CCC[C@H]2C(=O)N[C@@H](CC(C)C)C(=O)N[C@@H](CCCNC(=N)N)C(N)=O)NC(=O)[C@H](CC(N)=O)NC(=O)[C@H](CCC(N)=O)NC1=O` ([Mpa]YIQNCPLR-NH2; disulfide 1-6), the results for the EC50 in assay [1], in assay [2] and in assay [3] were 0.53 nM, more than 100 nM and more than 100 nM, respectively. Moreover, the Ratio EC50 in assay [4] and in assay [5] was more than 100 throughout.

Consider `CC(C)C[C@H](NC(=O)[C@@H]1CCCN1C(=O)[C@@H]1CSSCCC(=O)N[C@@H](Cc2ccc(O)cc2)C(=O)N[C@@H](CCCNC(=N)N)C(=O)N[C@@H](CCC(N)=O)C(=O)N[C@@H](CC(N)=O)C(=O)N1)C(=O)NCC(N)=O` ([Mpa]YRQNCPLG-NH2; disulfide 1-6), for which the EC50 in assay [1], in assay [2] and in assay [3] was more than 100 nM each time.

Regarding `CC(C)C[C@H](NC(=O)[C@@H]1CCCN1C(=O)[C@@H]1CSSCCC(=O)N[C@@H](Cc2ccc(O)cc2)C(=O)N[C@@H](CCC(=O)O)C(=O)N[C@@H](CCC(N)=O)C(=O)N[C@@H](CC(N)=O)C(=O)N1)C(=O)NCC(N)=O` ([Mpa]YEQNCPLG-NH2; disulfide 1-6), the EC50 in assay [1], in assay [2] and in assay [3] was more than 100 nM in each case.

As for `CC[C@H](C)[C@@H]1NC(=O)[C@H](CCCNC(=N)N)NC(=O)CCSSC[C@@H](C(=O)N2CCC[C@H]2C(=O)N[C@@H](CC(C)C)C(=O)NCC(N)=O)NC(=O)[C@H](CC(N)=O)NC(=O)[C@H](CCC(N)=O)NC1=O` ([Mpa]RIQNCPLG-NH2; disulfide 1-6), the EC50 in assay [1], in assay [2] and in assay [3] was more than 100 nM each time.

Consider `CC[C@H](C)[C@@H]1NC(=O)[C@H](CCC(=O)O)NC(=O)CCSSC[C@@H](C(=O)N2CCC[C@H]2C(=O)N[C@@H](CC(C)C)C(=O)NCC(N)=O)NC(=O)[C@H](CC(N)=O)NC(=O)[C@H](CCC(N)=O)NC1=O` ([Mpa]EIQNCPLG-NH2; disulfide 1-6), for which the EC50 in assay [1], in assay [2] and in assay [3] was more than 100 nM each time.

For the compound `CC[C@H](C)[C@@H]1NC(=O)[C@H](CO)NC(=O)CCSSC[C@@H](C(=O)N2CCC[C@H]2C(=O)N[C@@H](CC(C)C)C(=O)NCC(N)=O)NC(=O)[C@H](CC(N)=O)NC(=O)[C@H](CCC(N)=O)NC1=O` ([Mpa]SIQNCPLG-NH2; disulfide 1-6), the EC50 in assay [1], in assay [2] and in assay [3] was more than 100 nM each time.

For `CC[C@H](C)[C@@H]1NC(=O)[C@H](Cc2ccc(O)cc2)NC(=O)CCSSC[C@@H](C(=O)N2CCC[C@H]2C(=O)N[C@@H](CC(C)C)C(=O)NCC(N)=O)NC(=O)[C@H](CC(N)=O)NC(=O)[C@H](CCC(N)=O)NC1=O`, the EC50 in assay [3] amounted to 3.2 nM.

Turning to `CC[C@H](C)[C@@H]1NC(=O)[C@H](C)NC(=O)CCSSC[C@@H](C(=O)N2CCC[C@H]2C(=O)N[C@@H](CC(C)C)C(=O)NCC(N)=O)NC(=O)[C@H](CC(N)=O)NC(=O)[C@H](CCC(N)=O)NC1=O` ([Mpa]AIQNCPLG-NH2; disulfide 1-6), the EC50 in assay [1], in assay [2] and in assay [3] was more than 100 nM in each case.

With `CC[C@H](C)[C@@H]1NC(=O)[C@H](Cc2ccc(O)cc2)NC(=O)CCSSC[C@@H](C(=O)N2CCC[C@H]2C(=O)N[C@@H](CC(C)C)C(=O)NCC(N)=O)NC(=O)[C@H](CCCNC(=N)N)NC(=O)[C@H](CCC(N)=O)NC1=O` ([Mpa]YIQRCPLG-NH2; disulfide 1-6), the half-maximal effective concentration (EC50) in assay [1], in assay [2] and in assay [3] was more than 100 nM each time.

For orientation: EC50 means the concentration at which the effect is half-maximal.
